Test results published in ChEMBL document CHEMBL1949529, “Substrate specificity of acetoxy derivatives of coumarins and quinolones towards Calreticulin mediated transacetylation: investigations on antiplatelet function” (Bioorg Med Chem, 2012).
Calls of active or inactive are those of the source. The rule behind the calls is not given here.

Experiments:
[1] = (§1) Antiplatelet activity in human platelet rich plasma assessed as inhibition of ADP-induced aggregation compound preincubated for 10 mins before ADP addition by aggregometry method; type: functional, cell-free
[2] = system: Platelet; assay: as §1; type: functional, cell-free
[3] = system: Rattus norvegicus; assay: Inhibition of TxB2 production in arachidonic acid-stimulated blood of Sprague-Dawley rat assessed per mg of protein at 160.2 umol/kg, po, measured after 24 hrs by ELISA (reference value: 85.4 pg/mg of protein); type: functional
[4] = system: Platelet; assay: Enhancement of nitric oxide production in human platelet rich plasma at 100 uM preincubated for 10 mins before ADP addition by DCFH-DA-based flow cytometry; type: functional, cell-free
[5] = system: PBMC; assay: Inhibition of LPS-induced iNOS expression in Sprague-Dawley rat PBMC at 160.2 umol/kg, po for 5 days before LPS challenge by Western blot analysis; type: functional, organism-based
[6] = (§2) Antiplatelet activity in human platelet rich plasma assessed as inhibition of arachidonic acid-induced aggregation preincubated for 10 mins before arachidonic acid challenge by aggregometry method; type: functional, cell-free
[7] = system: Platelet; assay: as §2; type: functional, cell-free
[8] = system: Rattus norvegicus; assay: Antiplatelet activity in arachidonic acid-induced platelet aggregation po dosed Sprague-Dawley rat blood compound treated for 24 hrs before ADP challenge by aggregometry method; type: functional, organism-based
[9] = system: Rattus norvegicus; assay: Inhibition of LPS-induced tissue factor expression in Sprague-Dawley rat PBMC at 160.2 umol/kg, po for 5 days by ELISA relative to control; type: functional
[10] = system: Rattus norvegicus; assay: Inhibition of COX1 activity in TMPD/arachidonic acid-stimulated blood of Sprague-Dawley rat at 160.2 umol/kg, po after 24 hrs by ELISA relative to control; type: functional
[11] = system: Rattus norvegicus; assay: Antiplatelet activity in ADP-induced platelet aggregation po dosed Sprague-Dawley rat blood compound treated for 24 hrs before ADP challenge by aggregometry method; type: functional, organism-based
[12] = Inhibition of platelet CRTAase assessed as inhibition of platelet aggregation at 50 uM by spectrophotometry
[13] = system: Rattus norvegicus; assay: Inhibition of arachidonic acid-induced aggregation in Sprague-Dawley rat blood at 50.6 umol/kg, po treated for 24 hrs before arachidonic acid challenge by aggregometry method; type: functional
[14] = system: Rattus norvegicus; assay: Inhibition of ADP-induced platelet aggregation in Sprague-Dawley rat blood at 125.3 umol/kg, po treated for 24 hrs before ADP challenge by aggregometry method; type: functional

In the case of `CC(=O)Nc1ccc2c(C)cc(=O)oc2c1`, the IC50 [1] is reported as 145 µM, the inhibition [2] is reported as “Dose-dependent effect” and the “fold change (FC)” value [3] is reported as 0.39. The Activity [4] was “Active”, the inhibition [5] was “Active” and the IC50 [6] was 77 µM. The inhibition [7] was “Dose-dependent effect”, the Activity [8] was “Dose-dependent effect” and the “fold change (FC)” value [9] was 1.93. For the same molecule, the “fold change (FC)” value [10] was 3.34, the Activity [11] was “Dose-dependent effect” and the IC50 [11] was 125.3 µmol/kg. The inhibition [12] was “Active”.
In the case of `CC(=O)Nc1ccc2c(C)cc(=O)[nH]c2c1`, the inhibition [12] is reported as “Active”.
With `CC(=O)Oc1ccc2c(C(F)(F)F)cc(=O)[nH]c2c1` the inhibition [12] was “Active”.
With `CC(=O)Oc1cc2oc(=O)cc(C)c2cc1C(C)=O` the inhibition [12] was “inactive”.
With `CCCCCCCCc1c(C)c2cc(OC(C)=O)ccc2[nH]c1=O` the inhibition [12] was “Active”.
For `CCc1c(C)c2ccc(OC(C)=O)c(C(C)=O)c2oc1=O`, the inhibition [12] was “inactive”.
With `CCCCCCCCCCc1c(C)c2cc(OC(C)=O)ccc2[nH]c1=O` the inhibition [12] was “Active”.
In the case of `CCCCCCCCCCc1c(C)c2ccc(NC(C)=O)cc2oc1=O`, the inhibition [12] is reported as “Active”.
For `CC(=O)Oc1ccc2[nH]c(=O)cc(C(F)(F)F)c2c1`, the inhibition [12] was “Active”.
For `CC(=O)Nc1ccc2c(C(F)(F)F)cc(=O)oc2c1`, the inhibition [12] was “Active”.
In the case of `CC(=O)Oc1ccc2c(C)cc(=O)oc2c1C(C)=O`, the inhibition [12] is reported as “inactive”.
With `CC(=O)Oc1ccccc1C(=O)O` [ASPIRIN] the inhibition in vivo at 50.6 µmol/kg [13] was 55%, the “fold change (FC)” value [3] was 0.42 and the inhibition [5] was “inactive”. For the same molecule, the IC50 [6] was 80 µM, the “fold change (FC)” value [9] was 4.95 and the inhibition [10] was “Active”. It also gave an inhibition in vivo at 125.3 µmol/kg [14] of 52%.
With `CCCCCCc1c(C)c2ccc(NC(C)=O)cc2oc1=O` the inhibition [12] was “Active”.
For `CCCCc1c(C)c2cc(OC(C)=O)ccc2[nH]c1=O`, the inhibition [12] was “Active”.
In the case of `CC(=O)Nc1ccc2c(C(F)(F)F)cc(=O)[nH]c2c1`, the inhibition [12] is reported as “Active”.
With `CCc1c(C)c2cc(C(C)=O)c(OC(C)=O)cc2oc1=O` the inhibition [12] was “inactive”.
With `CCc1c(C)c2ccc(NC(C)=O)cc2oc1=O` the inhibition [12] was “Active”.
With `CCc1c(C)c2ccc(NC(C)=O)cc2[nH]c1=O` the inhibition [12] was “Active”.
